Two molecules from patent US10457943B2, “Antisense oligonucleotides for treatment of cancer stem cells” (Andes Biotechnologies Global, Inc., priority 2013, dated 2019) can be followed below.

Series [1] has as its system CerCa 3 primary cervical tumor cells (HPV 45). Description: Sphere formation assay, primary cervical tumor cells CerCa 3. It counts as cell-based, human. The conditions noted are these: incubated with 45 μM cisplatin. The procedure:
(§1) The ability of cervical cells from the SiHa cervical cancer cell line (transformed with Human Papillomavirus 16 or HPV 16) and from primary cultures of human uterine cervical cancer cells derived from patients to form spheroid bodies following treatment with antisense oligonucleotides directed to antisense non-coding chimeric mitochondrial RNA (ASncmtRNA) was determined. The assay utilized measured the numbers of spheroid bodies, also referred to herein as spheres, which are formed by cancer stem cells.
(§2) The experimental procedure and assay utilized herein measured the effect of antisense oligonucleotides that were targeted to ASncmtRNA on the number of spheres formed by cervical cancer cells (FIG. 6). Sphere formation was measured in the SiHa cervical cancer cell line and primary cultures of human cervical cancer cells derived from patients (CerCa). […]
(§3) About 1×10^5 cells resuspended in MEGM™ medium supplemented with 20 ng/ml of hEGF, hydrocortisone, insulin, GA-1000 (Lonza), 0.5×B-27 without vitamin A (Invitrogen), 20 ng/ml of FGFb (Invitrogen) without CFS were seeded on ultra-low adherence plates (Corning). Ten days later, the spheres were counted under phase microscopy, collected and filtered using a nylon mesh of 70 μm to discard single cells. […]
(§4) The different primary cultures were analyzed with the PGMY09/11 Linear Array (Roche). […]

Series [2] deals with SiHa cervical cancer cell line (HPV 16). Briefly: Sphere formation assay, SiHa cervical cancer cell line. The series is classed as cell-based, human. To be noted: incubated with 45 μM cisplatin. The procedure:
as §1
The experimental procedure and assay utilized herein measured the effect of antisense oligonucleotides that were targeted to ASncmtRNA on the number of spheres formed by cervical cancer cells (FIG. 6). Sphere formation was measured in the SiHa cervical cancer cell line and primary cultures of human cervical cancer cells derived from patients (CerCa). CerCa 1, CerCa 2 and CerCa 3 (transformed with Human Papillomavirus 45) were obtained from patient biopsies. […]
as §3

Series [3] relates to CerCa 2 primary cervical tumor cells (HPV 16). Briefly: Sphere formation assay, primary cervical tumor cells CerCa 2. The series is classed as cell-based, human. To be noted: incubated with 45 μM cisplatin. The procedure: as §1, §2, §3, §4
Series [4] concerns CerCa 1 primary cervical tumor cells (HPV 16). Briefly: Sphere formation assay, primary cervical tumor cells CerCa 1. It counts as cell-based, human. To be noted: incubated with 45 μM cisplatin. The procedure:
as §1, §2, §3, §4

Series [5] deals with RENCA cells. Description: Relapse and survival after surgical removal of RENCA kidney tumors, single post-surgery treatment (Example 4). It counts as in vivo, mice. To be noted: in liposomes. The procedure: 100,000 RENCA cells (ATCC® CRL-2947™ Mus musculus kidney renal adenocarcina) were injected subcutaneously at day 0. […] The animals were sutured and […] injected at the site of the removed tumor with 100 μg of ASO 154 (FIG. 11, squares) or ASO 1560S (FIG. 11, triangles), both formulated in liposomes, in 250 μl. No further treatment was given.

In series [6] the test system is B16F10 melanoma cells. Briefly: Relapse and survival after surgical removal of B16F10 melanoma tumors, intraperitoneal treatment (Example 6). To be noted: 25 and 50 μg intraperitoneal injections post-surgery. It counts as in vivo, mice.
In series [7] the test system is RENCA cells. Briefly: Relapse and survival after surgical removal of RENCA kidney tumors, intraperitoneal/intravenous treatment (Example 5). The series is classed as in vivo, mice. The conditions noted are these: day 60; 25 μg ip and iv injections in liposomes. The procedure:
100,000 RENCA cells (ATCC® CRL-2947™ Mus musculus kidney renal adenocarcina) were injected subcutaneously on day 0 in 8 mice. […] Tumors of all animals were removed by surgery and divided in 2 groups. […] Post-suture, a bolus of 250 μl was intraperiotoneally injected in the place of where tumor had grown: the control group was injected with ASO 154 and the treated group with ASO 1560S. On days 13, 15, 17 and 19, intraperitoneal injections of 25 μg ASO 154 (FIG. 12, circles) or 25 μg ASO 1560S (FIG. 12, squares) formulated in liposomes were injected in a volume of 250 μl. On days 14, 16 and 18, the mice were injected intravenously with the same protocol. On day 22, all control animals had tumors larger than 1,200 mm3 and were sacrificed. On day 60, all animals treated with ASO 1560S had no tumors and were still alive (FIG. 12).

In series [8] the test system is B16F10 melanoma cells. Briefly: Relapse and metastasis after surgical removal of B16F10 melanoma tumors (Example 3). The series is classed as in vivo, C57BL/6 mice. The procedure:
One common clinical protocol for melanoma includes surgical resection follow by systemic administration of drugs. Similar protocols are used in the practice of other tumors. In the melanoma model presented in this representative example, B16F10 melanoma cells (100,000 cells in 200 μl of saline) were injected subcutaneously on the back of C57BL/6 mice. About 11 to 12 days post-cell injection, tumors between 700 to 1.000 mm3 developed (a 1,000 mm3 tumor in mice is considered equivalent to a 3,000 cc3 tumor in humans). […] Tumors were surgically resected under anesthesia and the wound washed once with 250 μl containing 100 μg of ASO 1560S or ASO 154. After surgical suture, a bolus of 200 μl saline containing 100 μg of ASO 154 or ASO 1560S was applied into the cavity left by the tumor. Three days post-surgery, mice received on alternative days, 3 intravenous (FIG. 9; 1st, 3rd, 5th arrows on timeline) or 3 intraperitoneal (FIG. 9; 2nd, 4th, 6th arrows on timeline) injections of 250 μl saline containing 100 μg of either ASO 1560S or ASO 154. Tumor growth was measured twice a week with a caliper.
Relapse of tumor growth in mice treated with ASO 154 was observed about 3 days post-surgery and tumor volume of about 1,500 mm3 was reached on about the 25th day post-cell injection (FIG. 9). These mice were euthanized under anesthesia, and the tumor and other organs were fixed and saved for further studies. […] Livers and lungs were analyzed for the presence of metastatic nodules.

Series [9] has as its system MB49 cells (mouse bladder cancer cells). Description: Tumors and survival after surgical removal of MB49 bladder carcinoma tumors (Example 7). The series is classed as in vivo, mice. The procedure: Twelve mice were injected subcutaneously with a 100,000 MB49 cells (mouse bladder cancer cells). After 15 days mice had tumors of an average diameter of 800 mm3. Tumors were surgically removed (day 0) and a bolus of 200 μl containing 100 μg of ASO 154 (control) or ASO 1560S (active drug) was injected at the site of the surgery. Three days post-surgery mice were divided in 2 groups and treated intraperitoneally or intravenously with 100 μl injections containing ASO 154 (control group) or ASO 1560S (treated group) as indicated in FIG. 14. Only one mouse treated intraperitoneally with ASO 1560S developed a tumor.

Where [10] appears, read: FIG. 14, intraperitoneal or intravenous administration.
The mark [11] stands for this setting: treated intravenously after 100 μg bolus at surgery site.

Entries after “also recorded” stand apart in the source; their conditions may differ.

In the case of `N.N.[Cl][Pt][Cl]` [cisplatin], the Sphere formation result in [1] is listed as “no effect; also recorded: resistant to cisplatin treatment”; in series [2] it was “abolished sphere formation”; in [3], “abolished sphere formation”; in series [4], “abolished sphere formation”.
In the case of “ASO 1560S: antisense oligonucleotide targeted to the mouse ASncmtRNAs (SEQ ID NO: 198) (antisense CACCCTCTAACCTAGAGAAG; all phosphorothioate, sugars by position and methylation of C not given here)”, the Survival entry is reported as “still alive; also recorded: complete survival” with RENCA cells [5] (day 61); “complete survival” with B16F10 melanoma cells [6]; “still alive” in the series on RENCA cells [7]; “complete survival” in series [9] (setting [10]); “full survival” in series [9] (setting [11]). Besides, the “Tumors / tumor relapse after surgery” value in the series with RENCA cells [5] (up to day 61, 100 μg wash and 100 μg injection) is on record as “no tumors; also recorded: absence of tumor relapse”. In addition, the “Tumor relapse after surgery” value in the series on B16F10 melanoma cells [6] was “absence of the intradermal melanoma tumor relapse”. The “Tumors / relapse after surgery” value with RENCA cells [7] is recorded as “no tumors; also recorded: absence of relapse”. In the series on B16F10 melanoma cells [8] (100 μg wound wash, 100 μg bolus, then 3 iv and 3 ip injections of 100 μg), the “Relapse of tumor growth after surgery” value is recorded as “No relapse; also recorded: prevented or suppressed cancer relapse; also recorded: absence of tumor relapse”. Further, the Detectable tumors result with B16F10 melanoma cells [8] (130 days post-cell injection) is given as “without the presence of detectable tumors”. In addition, the “Metastatic nodules in lungs and liver” value in the series with B16F10 melanoma cells [8] (organs collected at euthanasia) was “lacked the presence of metastatic nodules; also recorded: absence of metastatic nodules”. Moreover, the Tumors entry was “absence of tumors” in series [9] (setting [10]) and “remained without tumors” in series [9] (setting [11]). In series [9] (treated intraperitoneally after 100 μg bolus at surgery site), the “Number of mice that developed a tumor” value is “one”.
